# Results taken from patent publication US11291661B2, “Pharmaceutical composition” (priority 2019, dated 2022).
# What was measured:
# [1] = Biopharmaceutical classification / solubility statement; assay type: physicochemical
# [2] = Absorption, distribution, metabolism and excretion after a single 1-mg oral dose of [14C]Compound (A); assay type: in vivo, human
# Text: Primary phase 1 oxidative pathways included:
# 1) oxidative O-dealkylation; 2) oxidation at the phenyl cyclopropyl isoxazole moiety; 3) oxidation at the benzothiazole and fused ring structure. Metabolites containing multiple oxidative modifications and/or glucuronidation to oxidative products were also observed in human excreta.
compound,measurement,setting,value
"O=C(O)c1cc(F)c2nc(N3C4CC[C@H]3C[C@@H](OCc3c(-c5ccccc5OC(F)(F)F)noc3C3CC3)C4)sc2c1 [Compound (A), 2-[(1R,3r,5S)-3-({5-cyclopropyl-3-[2-(trifluoromethoxy)phenyl]-1,2-oxazol-4-yl}methoxy)-8-azabicyclo[3.2.1]octan-8-yl]-4-fluoro-1,3-benzothiazole-6-carboxylic acid]",water solubility,[1],low water solubility
same,biopharmaceutical classification system class,[1]; poorly soluble and poorly permeable compound,class IV
same,Faecal excretion of related radioactivity,[2],~65 % of the total dose
same,Unchanged Compound (A) in the plasma,[2],~92 % of total radioactivity
same,urinary excretion of related radioactivity,[2],~29 % of the total dose
same,"Mass balance, administered dose recovered in excreta",[2]; 312 hours collection period,approximately 94%
same,half-life,"[2]; human, plasma, read-out: half time (t1/2) in plasma (converted)",810 min
same,Cmax,"[2]; human, plasma, read-out: maximum concentration (Cmax) of parent in plasma",33.5 ng/mL
same,Tmax,"[2]; human, plasma, read-out: median Tmax",4 h
